Here are results for 29 compounds from US20100272680A1, “Piperidinyl Cyclic Amido Antiviral Agents” (priority 2009, published 2010).

For one experiment, the system named is HCV Genotype 1B Replicon. In words: Replicon assay, genotype 1b subgenomic replicon (ET cell line), luciferase readout. The experiment is classed as cell-based. The settings on record: Hepatitis C virus, 48 h, Table 3; luciferase activity after 48 hours. The procedure:
(§1) Compounds were assayed for activity against HCV using the genotype 1a and 1b subgenomic replicon model systems. Stable cell lines bearing the genotype 1a and 1b replicons were used for screening of compounds. Both replicons are bicistonic and contain the firefly luciferase gene. The ET cell line is stably transfected with RNA transcripts harboring a I389luc-ubi-neo/NS3-3′/ET replicon with firefly luciferase-ubiquitin-neomycin phosphotransferase fusion protein and EMCV-IRES driven NS3-5B polyprotein containing the cell culture adaptive mutations (E1202G; T12801; K1846T) (Krieger at al, 2001 and unpublished). The genotype 1a replicon is a stable cell line licensed from Apath LLC, modified to contain the firefly luciferase gene. The cells were grown in DMEM, supplemented with 10% fetal calf serum, 2 mM Glutamine, Penicillin (100 IU/mL)/Streptomycin (100 μg/mL), 1× nonessential amino acids, and 250-500 μg/mL G418 (“Geneticin”). They were all available through Life Technologies (Bethesda, Md.). The cells were plated at 0.5×10^4 cells/well in 384 well plates containing compounds. The final concentration of compounds ranged between 0.03 μM to 50 μm and the final DMSO concentration of 0.5-1%.
(§2) Luciferase activity was measured 48 hours later by adding a Steady glo (Promega, Madison, Wis.). Percent inhibition of replication data was plotted relative to no compound control. Under the same condition, cytotoxicity of the compounds was determined using cell titer glo (Promega, Madison, Wis). IC50s were determined from a 10 point dose response curve using 3-4-fold serial dilution for each compound, which spans a concentration range >1000 fold. BioAssay determines the level of inhibition for each compound by normalizing cross-talk corrected plate values against the negative […] controls to determine Percent Inhibition:
(§3) These normalized values are exported to EC50 where they are plotted against the molar compound concentrations using the standard four parameter logistic equation: […]
(§4) Some EC50 measurements were repeated a second time and for both 1A and 1B genotypes after those reported in Table 2 for compounds 101-108 and the repeated data was reported in Table 3.

For a further experiment, the system named is HCV Genotype 1A Replicon. In words: Replicon assay, genotype 1a subgenomic replicon, luciferase readout. The experiment is classed as cell-based. The conditions noted are these: Hepatitis C virus, 48 h, Table 3; luciferase activity after 48 hours. The procedure:
as §1, §2, §3, §4

`CO[C@H]1CN(C(=O)c2nc3c(C(F)(F)F)cc(-c4ccoc4)cn3c2Cl)CC[C@@H]1N1CCOC1=O` (racemic) [Compound 236, (±) trans-3-[1-{[3-chloro-6-(3-furanyl)-8-(trifluoromethyl)imidazo[1,2-a]pyridin-2-yl]carbonyl}-3-(methyloxy)-4-piperidinyl]-1,3-oxazolidin-2-one]: the EC50 in the experiment on HCV Genotype 1B Replicon and in the experiment on HCV Genotype 1A Replicon was at least 5010 nM each time.

Turning to `CO[C@H]1CN(C(=O)c2nc3c(C(F)(F)F)cc(Br)cn3c2Cl)CC[C@@H]1N1CCOC1=O` (racemic) [Compound 237, (±) trans-3-[1-{[6-bromo-3-chloro-8-(trifluoromethyl)imidazo[1,2-a]pyridin-2-yl]carbonyl}-3-(methyloxy)-4-piperidinyl]-1,3-oxazolidin-2-one], the 50% effective concentration (EC50) with HCV Genotype 1B Replicon and in the experiment with HCV Genotype 1A Replicon was at least 5010 nM throughout.

On to `CO[C@H]1CN(C(=O)c2nc3c(C(F)(F)F)cc(C4CC4)cn3c2Cl)CC[C@@H]1N1CCOC1=O` (racemic) [Compound 238, (±) trans-3-[1-{[3-chloro-6-cyclopropyl-8-(trifluoromethyl)imidazo[1,2-a]pyridin-2-yl]carbonyl}-3-(methyloxy)-4-piperidinyl]-1,3-oxazolidin-2-one], for which the concentration for a half-maximal effect (EC50) with HCV Genotype 1B Replicon and in the experiment with HCV Genotype 1A Replicon was at least 5010 nM throughout.

As for `O=C(c1nc2c(C(F)(F)F)cc(C3CC3)cn2c1Cl)N1CC[C@@H](N2CCOC2=O)[C@H](O)C1` (single isomer, unassigned; enantiomer 1) [Compound 220, 3-((trans)-1-{[3-chloro-6-cyclopropyl-8-(trifluoromethyl)imidazo[1,2-a]pyridin-2-yl]carbonyl}-3-hydroxy-4-piperidinyl)-1,3-oxazolidin-2-one (Enantiomer 1)], the values for the concentration for a half-maximal effect (EC50) with HCV Genotype 1B Replicon and with HCV Genotype 1A Replicon were 30 nM and 20 nM, respectively.

With `O=C1CN(C(=O)c2nc3c(C(F)(F)F)cc(C4CC4)cn3c2Cl)CC[C@@H]1N1CCOC1=O` (stereo in doubt) [Compound 232, 1-{[3-chloro-6-cyclopropyl-8-(trifluoromethyl)imidazo[1,2-a]pyridin-2-yl]carbonyl}-4-(2-oxo-1,3-oxazolidin-3-yl)-3-piperidinone], the EC50 in the experiment on HCV Genotype 1B Replicon was 80 nM; with HCV Genotype 1A Replicon, 60 nM.

As to `O=C(c1nc2c(C(F)(F)F)cccn2c1Cl)N1CCC(N2CCCC2=O)CC1` [Compound 109, 1-(1-{[3-chloro-8-(trifluoromethyl)imidazo[1,2-a]pyridin-2-yl]carbonyl}-4-piperidinyl)-2-pyrrolidinone], the half-maximal effective concentration (EC50) in the experiment on HCV Genotype 1B Replicon worked out at 28200 nM; in the experiment on HCV Genotype 1A Replicon, 38000 nM.

For `O=C(c1nc2c(C(F)(F)F)cc(Cl)cn2c1Cl)N1CCC(N2CCCC2=O)CC1` [Compound 110, 1-(1-{[3,6-dichloro-8-(trifluoromethyl)imidazo[1,2-a]pyridin-2-yl]carbonyl}-4-piperidinyl)-2-pyrrolidinone], the EC50 with HCV Genotype 1B Replicon was determined as 800 nM; in the experiment with HCV Genotype 1A Replicon it was 1740 nM.

Regarding `O=C(c1nc2c(C(F)(F)F)cccn2c1Cl)N1CCC(N2CCOC2=O)CC1` [Compound 111, 3-(1-{[3-chloro-8-(trifluoromethyl)imidazo[1,2-a]pyridin-2-yl]carbonyl}-4-piperidinyl)-1,3-oxazolidin-2-one], the 50% effective concentration (EC50) is 11800 nM with HCV Genotype 1B Replicon and at least 5010 nM in the experiment on HCV Genotype 1A Replicon.

Consider `O=C(c1nc2c(C(F)(F)F)cc(Cl)cn2c1Cl)N1CCC(N2CCOC2=O)CC1` [Compound 112, 3-(1-{[3,6-dichloro-8-(trifluoromethyl)imidazo[1,2-a]pyridin-2-yl]carbonyl)-4-piperidinyl)-1,3-oxazolidin-2-one], for which the figures for the EC50 with HCV Genotype 1B Replicon and with HCV Genotype 1A Replicon were 170 nM and 130 nM, respectively.

Turning to `O=C(c1nc2c(C(F)(F)F)cc(-c3ccncc3)cn2c1Cl)N1CCC(N2CCOC2=O)CC1` [Compound 113], the EC50 with HCV Genotype 1B Replicon was determined as 9660 nM; with HCV Genotype 1A Replicon it was 740 nM.

In the case of `O=C(c1nc2c(C(F)(F)F)cc(-c3cccc(F)c3)cn2c1Cl)N1CCC(N2CCOC2=O)CC1` [Compound 114], the EC50 came out at 310 nM in the experiment with HCV Genotype 1B Replicon and 30 nM in the experiment on HCV Genotype 1A Replicon.

As to `O=C(c1nc2c(C(F)(F)F)cc(-c3ccc(F)cc3)cn2c1Cl)N1CCC(N2CCOC2=O)CC1` [Compound 115, 3-(1-{[3-chloro-6-(4-fluorophenyl)-8-(trifluoromethyl)imidazo[1,2-a]pyridin-2-yl]carbonyl}-4-piperidinyl)-1,3-oxazolidin-2-one], the figures for the EC50 in the experiment on HCV Genotype 1B Replicon and in the experiment on HCV Genotype 1A Replicon were 3690 nM and 60 nM, respectively.

On to `COc1ccccc1-c1cc(C(F)(F)F)c2nc(C(=O)N3CCC(N4CCOC4=O)CC3)c(Cl)n2c1` [Compound 116], for which the half-maximal effective concentration (EC50) is 7410 nM with HCV Genotype 1B Replicon and 360 nM in the experiment on HCV Genotype 1A Replicon.

As for `COc1cccc(-c2cc(C(F)(F)F)c3nc(C(=O)N4CCC(N5CCOC5=O)CC4)c(Cl)n3c2)c1` [Compound 117], the figures for the EC50 in the experiment on HCV Genotype 1B Replicon and with HCV Genotype 1A Replicon were 2540 nM and 470 nM, respectively.

With `COc1ccc(-c2cc(C(F)(F)F)c3nc(C(=O)N4CCC(N5CCOC5=O)CC4)c(Cl)n3c2)cc1` [Compound 118], the EC50 amounted to 17600 nM with HCV Genotype 1B Replicon and 150 nM in the experiment on HCV Genotype 1A Replicon.

On to `O=C(c1nc2c(C(F)(F)F)cc(-c3ccsc3)cn2c1Cl)N1CCC(N2CCOC2=O)CC1` [Compound 119], for which the figures for the half-maximal effective concentration (EC50) in the experiment with HCV Genotype 1B Replicon and in the experiment with HCV Genotype 1A Replicon were 50 nM and 10 nM, respectively.

For the compound `O=C(c1nc2c(C(F)(F)F)cc(-c3cccc4cccnc34)cn2c1Cl)N1CCC(N2CCOC2=O)CC1` [Compound 120], the half-maximal effective concentration (EC50) in the experiment with HCV Genotype 1B Replicon is 36000 nM; in the experiment on HCV Genotype 1A Replicon, 290 nM.

Consider `O=C(c1nc2c(C(F)(F)F)cc(-c3ccccc3O)cn2c1Cl)N1CCC(N2CCOC2=O)CC1` [Compound 121], for which the concentration for a half-maximal effect (EC50) is 2850 nM in the experiment on HCV Genotype 1B Replicon and 440 nM in the experiment on HCV Genotype 1A Replicon.

Consider `O=C(c1nc2c(C(F)(F)F)cc(-c3cccc(O)c3)cn2c1Cl)N1CCC(N2CCOC2=O)CC1` [Compound 122], for which the EC50 with HCV Genotype 1B Replicon was determined as 15800 nM; in the experiment on HCV Genotype 1A Replicon it was 2340 nM.

For the compound `O=C(c1nc2c(C(F)(F)F)cc(-c3ccc(O)cc3)cn2c1Cl)N1CCC(N2CCOC2=O)CC1` [Compound 123], the values for the EC50 in the experiment with HCV Genotype 1B Replicon and in the experiment with HCV Genotype 1A Replicon were 380 nM and 30 nM, respectively.

Consider `Cn1cc(-c2cc(C(F)(F)F)c3nc(C(=O)N4CCC(N5CCOC5=O)CC4)c(Cl)n3c2)cn1` [Compound 124], for which the results for the EC50 in the experiment with HCV Genotype 1B Replicon and in the experiment with HCV Genotype 1A Replicon were 3470 nM and 30 nM, respectively.

`CCn1cc(-c2cc(C(F)(F)F)c3nc(C(=O)N4CCC(N5CCOC5=O)CC4)c(Cl)n3c2)cn1` [Compound 125]: the EC50 with HCV Genotype 1B Replicon was determined as 13300 nM; in the experiment on HCV Genotype 1A Replicon, 90 nM.

In the case of `CC(C)Cn1cc(-c2cc(C(F)(F)F)c3nc(C(=O)N4CCC(N5CCOC5=O)CC4)c(Cl)n3c2)cn1` [Compound 126, 3-(1-{[3-chloro-6-[1-(2-methylpropyl)-1H-pyrazol-4-yl]-8-(trifluoromethyl)imidazo[1,2-a]pyridin-2-yl]carbonyl}-4-piperidinyl)-1,3-oxazolidin-2-one], the values for the EC50 in the experiment with HCV Genotype 1B Replicon and in the experiment with HCV Genotype 1A Replicon were at least 50100 nM and 13600 nM, respectively.

In the case of `O=C(c1nc2c(C(F)(F)F)cc(C3CCCC3)cn2c1Cl)N1CCC(N2CCOC2=O)CC1` [Compound 127, 3-(1-{[3-chloro-6-cyclopentyl-8-(trifluoromethyl)imidazo[1,2-a]pyridin-2-yl]carbonyl}-4-piperidinyl)-1,3-oxazolidin-2-one], the concentration for a half-maximal effect (EC50) in the experiment with HCV Genotype 1B Replicon was found to be 170 nM; with HCV Genotype 1A Replicon, 10 nM.

Regarding `O=C(c1nc2c(C(F)(F)F)cc(C3CCC3)cn2c1Cl)N1CCC(N2CCOC2=O)CC1` [Compound 128, 3-(1-{[3-chloro-6-cyclobutyl-8-(trifluoromethyl)imidazo[1,2-a]pyridin-2-yl]carbonyl}-4-piperidinyl)-1,3-oxazolidin-2-one], the EC50 in the experiment with HCV Genotype 1B Replicon is 30 nM; in the experiment with HCV Genotype 1A Replicon, 10 nM.

`CCCc1cc(C(F)(F)F)c2nc(C(=O)N3CCC(N4CCOC4=O)CC3)c(Cl)n2c1` [Compound 129, 3-(1-{[3-chloro-6-propyl-8-(trifluoromethyl)imidazo[1,2-a]pyridin-2-yl]carbonyl}-4-piperidinyl)-1,3-oxazolidin-2-one]: the values for the concentration for a half-maximal effect (EC50) in the experiment on HCV Genotype 1B Replicon and in the experiment on HCV Genotype 1A Replicon were 120 nM and 20 nM, respectively.

With `CC(C)Cc1cc(C(F)(F)F)c2nc(C(=O)N3CCC(N4CCOC4=O)CC3)c(Cl)n2c1` [Compound 130, 3-(1-{[3-chloro-6-(2-methylpropyl)-8-(trifluoromethyl)imidazo[1,2-a]pyridin-2-yl]carbonyl}-4-piperidinyl)-1,3-oxazolidin-2-one], the EC50 in the experiment on HCV Genotype 1B Replicon is 50 nM; in the experiment with HCV Genotype 1A Replicon, 20 nM.

With `CCCCc1cc(C(F)(F)F)c2nc(C(=O)N3CCC(N4CCOC4=O)CC3)c(Cl)n2c1` [Compound 131], the figures for the EC50 in the experiment with HCV Genotype 1B Replicon and in the experiment on HCV Genotype 1A Replicon were 700 nM and 10 nM, respectively.

For the compound `COc1cc(C(F)(F)F)c2nc(C(=O)N3CCC(N4CCOC4=O)CC3)c(Cl)n2c1` [Compound 132, 3-(1-{[3-chloro-6-(methyloxy)-8-(trifluoromethyl)imidazo[1,2-a]pyridin-2-yl]carbonyl}-4-piperidinyl)-1,3-oxazolidin-2-one], the EC50 in the experiment on HCV Genotype 1B Replicon worked out at 210 nM; in the experiment with HCV Genotype 1A Replicon, 130 nM.
